The structures appear in SMILES notation. Read-outs that look alike come from different tables or passages of the source.

This is an account of results in US10626125B2, “1,1,1-trifluoro-3-hydroxypropan-2-yl carbamate derivatives as MAGL inhibitors” (PFIZER INC., priority 2017, dated 2020).

For experiment [1], the target named is T1, human recombinant Monoacylglycerol Lipase (Homo sapiens, UniProt Q99685).
T1 sequence (Q99685 1-303): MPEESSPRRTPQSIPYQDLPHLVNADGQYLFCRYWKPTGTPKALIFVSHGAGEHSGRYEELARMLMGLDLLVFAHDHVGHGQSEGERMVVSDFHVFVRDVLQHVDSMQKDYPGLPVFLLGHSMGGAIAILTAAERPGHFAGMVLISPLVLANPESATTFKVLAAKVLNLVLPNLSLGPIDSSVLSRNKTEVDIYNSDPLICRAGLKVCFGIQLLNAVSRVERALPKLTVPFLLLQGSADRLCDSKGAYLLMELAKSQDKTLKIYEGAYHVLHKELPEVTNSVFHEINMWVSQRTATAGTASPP
Nature of the experiment: MAGL enzymatic assay (IC50; 7-HCA substrate added at T=0 min or T=30 min). It counts as biochemical. The note with it: geometric mean of 2-5 determinations unless otherwise indicated.

Experiment [2] deals with T1, human recombinant Monoacylglycerol Lipase. As to the kind of experiment: MAGL inactivation (kinact/KI from enzyme progress curves, T=0 min protocol). Particulars: from plot of Kobs vs. compound concentration, geometric mean of 2-5 determinations (b: ≥6).
Where [3] appears, read: MAGL (T = 30 min) IC50, substrate 7-HCA added after 30 minute incubation (T=30 min).
Where [4] appears, read: substrate 7-HCA added immediately (T=0 min), read-out: MAGL (T = 0 min) IC50.

For the compound `O=C(O[C@H](CO)C(F)(F)F)N1CCC2(CCC(c3ccc(F)cn3)CO2)CC1` (single isomer, unassigned) [Example 74], the IC50 (in general, the midpoint of a concentration-inhibition curve) stood at 6 nM in experiment [1] (setting [3]) and 69 nM in experiment [1] (setting [4]). Further, the “MAGL kinact/KI” value in experiment [2] is reported as 7140 1/s per M.

`N#Cc1cccc(C2COC3(CCN(C(=O)O[C@H](CO)C(F)(F)F)CC3)C2)c1F` (single isomer, unassigned) [Example 71]: the figures for the IC50 in experiment [1] (setting [3]) and in experiment [1] (setting [4]) were 3 nM and 29 nM, respectively. Further, in experiment [2], the “MAGL kinact/KI” value is recorded as 17800 1/s per M.

As to `O=C(O[C@H](CO)C(F)(F)F)N1CCC2(CC1)CC(c1ccccc1F)CO2` (single isomer, unassigned) [Example 25], the 50% inhibitory concentration (IC50) in experiment [1] (setting [3]) was 2 nM; in experiment [1] (setting [4]), 20 nM. For the same compound, in experiment [2], the “MAGL kinact/KI” value is 25500 1/s per M.

Take `O=C(O[C@H](CO)C(F)(F)F)N1CCC2(CC1)CC(c1ccnc(C(F)(F)F)c1)C2` [Example 68, (2R)-1,1,1-trifluoro-3-hydroxypropan-2-yl 2-[2-(trifluoromethyl)pyridin-4-yl]-7-azaspiro[3.5]nonane-7-carboxylate]: the figures for the IC50 in experiment [1] (setting [3]) and in experiment [1] (setting [4]) were 0.9 nM and 9 nM, respectively. The “MAGL kinact/KI” value in experiment [2] is recorded as 88300 1/s per M.

Take `O=C(O[C@H](CO)C(F)(F)F)N1CCC2(CC1)CC(Oc1ccccn1)C2` [Example 87, (2R)-1,1,1-trifluoro-3-hydroxypropan-2-yl 2-(pyridin-2-yloxy)-7-azaspiro[3.5]nonane-7-carboxylate]: the half-inhibitory concentration (IC50) in experiment [1] (setting [3]) was 2 nM; in experiment [1] (setting [4]), 26 nM. Also, the “MAGL kinact/KI” value in experiment [2] was 32600 1/s per M.

In the case of `CN(C(=O)C1CC(F)(F)C1)[C@H]1COC2(CCN(C(=O)O[C@H](CO)C(F)(F)F)CC2)C1` [Example 58, (2R)-1,1,1-trifluoro-3-hydroxypropan-2-yl (3R)-3-{[(3,3-difluorocyclobutyl)carbonyl](methyl)amino}-1-oxa-8-azaspiro[4.5]decane-8-carboxylate], the IC50 worked out at 21 nM in experiment [1] (setting [3]) and 169 nM in experiment [1] (setting [4]). Moreover, the “MAGL kinact/KI” value in experiment [2] was 1810 1/s per M.

With `O=C(O[C@H](CO)C(F)(F)F)N1CCC2(CC1)CC(Oc1ccccc1)C2` [Example 63, (2R)-1,1,1-trifluoro-3-hydroxypropan-2-yl 2-phenoxy-7-azaspiro[3.5]nonane-7-carboxylate], the results for the half-inhibitory concentration (IC50) in experiment [1] (setting [3]) and in experiment [1] (setting [4]) were 1 nM and 11 nM, respectively. Further, the “MAGL kinact/KI” value in experiment [2] was 34100 1/s per M.

As for `O=C(O[C@H](CO)C(F)(F)F)N1CCC2(CC1)CC(c1cccc(C(F)(F)F)n1)C2` [Example 76, (2R)-1,1,1-trifluoro-3-hydroxypropan-2-yl 2-[6-(trifluoromethyl)pyridin-2-yl]-7-azaspiro[3.5]nonane-7-carboxylate], the IC50 in experiment [1] (setting [3]) came to 0.2 nM; in experiment [1] (setting [4]), 2 nM. For the same compound, in experiment [2], the “MAGL kinact/KI” value is on record as 206000 1/s per M.

For the compound `O=C(O[C@H](CO)C(F)(F)F)N1CCC2(CC1)CC(n1ncc3ccccc31)CO2` (single isomer, unassigned) [Example 62], the results for the IC50 in experiment [1] (setting [3]) and in experiment [1] (setting [4]) were 1 nM and 10 nM, respectively. In addition, the “MAGL kinact/KI” value in experiment [2] is on record as 18100 1/s per M.

With `O=C(O[C@H](CO)C(F)(F)F)N1CCC2(CC1)CC(Oc1ccnc(C(F)(F)F)c1)C2` [Example 59, (2R)-1,1,1-trifluoro-3-hydroxypropan-2-yl 2-{[2-(trifluoromethyl)pyridin-4-yl]oxy}-7-azaspiro[3.5]nonane-7-carboxylate], the IC50 in experiment [1] (setting [3]) came to 1 nM; in experiment [1] (setting [4]), 5 nM. For the same compound, in experiment [2], the “MAGL kinact/KI” value is given as 137000 1/s per M.

Consider `O=C(O[C@H](CO)C(F)(F)F)N1CCC2(CC1)CC(Cn1cc(C(F)(F)F)cn1)CO2` (single isomer, unassigned) [Example 4], for which the IC50 came out at 8 nM in experiment [1] (setting [3]) and 65 nM in experiment [1] (setting [4]). Moreover, in experiment [2], the “MAGL kinact/KI” value was 4710 1/s per M.

Consider `N#Cc1cc(C2COC3(CCN(C(=O)O[C@H](CO)C(F)(F)F)CC3)C2)ccc1F` (single isomer, unassigned) [Example 28], for which the IC50 in experiment [1] (setting [3]) was 3 nM; in experiment [1] (setting [4]) it was 27 nM. In experiment [2], the “MAGL kinact/KI” value is given as 16900 1/s per M.

For the compound `O=C(O[C@H](CO)C(F)(F)F)N1CCC2(CC1)CC(c1ccc(F)cc1)CO2` (single isomer, unassigned) [Example 34], the IC50 in experiment [1] (setting [3]) was found to be 4 nM; in experiment [1] (setting [4]), 48 nM. Besides, the “MAGL kinact/KI” value in experiment [2] was 7920 1/s per M.

As to `N#Cc1ccc(F)c(C2COC3(CCN(C(=O)O[C@H](CO)C(F)(F)F)CC3)C2)c1` (single isomer, unassigned) [Example 29], the IC50 in experiment [1] (setting [3]) is 17 nM; in experiment [1] (setting [4]), 184 nM. For the same compound, the “MAGL kinact/KI” value in experiment [2] is listed as 3250 1/s per M.

For the compound `CN(C(=O)Cc1ccccc1)C1CC2(CCN(C(=O)O[C@H](CO)C(F)(F)F)CC2)C1` [Example 44, (2R)-1,1,1-trifluoro-3-hydroxypropan-2-yl 2-[methyl(phenylacetyl)amino]-7-azaspiro[3.5]nonane-7-carboxylate], the IC50 in experiment [1] (setting [3]) is 4 nM; in experiment [1] (setting [4]), 40 nM. Further, the “MAGL kinact/KI” value in experiment [2] is given as 13800 1/s per M.

For the compound `O=C(O[C@H](CO)C(F)(F)F)N1CCC2(CC1)CC(n1cc(Cl)cn1)CO2` (single isomer, unassigned) [Example 22], the half-inhibitory concentration (IC50) is 4 nM in experiment [1] (setting [3]) and 49 nM in experiment [1] (setting [4]). In experiment [2], the “MAGL kinact/KI” value is on record as 9780 1/s per M.

Regarding `O=C(O[C@H](CO)C(F)(F)F)N1CCC2(CCC(n3cc(F)cn3)CO2)CC1` (single isomer, unassigned) [Example 70], the results for the IC50 in experiment [1] (setting [3]) and in experiment [1] (setting [4]) were 2 nM and 22 nM, respectively. Moreover, in experiment [2], the “MAGL kinact/KI” value is given as 40400 1/s per M.

In the case of `O=C(O[C@H](CO)C(F)(F)F)N1CCC2(CC1)CC(n1cc(C(F)F)cn1)CO2` (single isomer, unassigned) [Example 20], the results for the IC50 in experiment [1] (setting [3]) and in experiment [1] (setting [4]) were 11 nM and 107 nM, respectively. In experiment [2], the “MAGL kinact/KI” value was 7170 1/s per M.

As to `N#Cc1ccc(C2COC3(CCN(C(=O)O[C@H](CO)C(F)(F)F)CC3)C2)c(F)c1` (single isomer, unassigned) [Example 72], the IC50 in experiment [1] (setting [3]) is 4 nM; in experiment [1] (setting [4]), 32 nM. Moreover, in experiment [2], the “MAGL kinact/KI” value was 17000 1/s per M.

For the compound `O=C(O[C@H](CO)C(F)(F)F)N1CCC2(CC1)CC(c1ccc(F)cn1)C2` [Example 2, (2R)-1,1,1-Trifluoro-3-hydroxypropan-2-yl 2-(5-fluoropyridin-2-yl)-7-azaspiro[3.5]nonane-7-carboxylate], the IC50 in experiment [1] (setting [3]) was 2 nM; in experiment [1] (setting [4]) it was 21 nM. The “MAGL kinact/KI” value in experiment [2] is 33800 1/s per M.

For `N#Cc1cccc(OC2CC3(CCN(C(=O)O[C@H](CO)C(F)(F)F)CC3)C2)c1` [Example 86, (2R)-1,1,1-trifluoro-3-hydroxypropan-2-yl 2-(3-cyanophenoxy)-7-azaspiro[3.5]nonane-7-carboxylate], the concentration for half-maximal inhibition (IC50) in experiment [1] (setting [3]) was 0.7 nM; in experiment [1] (setting [4]) it was 9 nM. Also, in experiment [2], the “MAGL kinact/KI” value is recorded as 50100 1/s per M.

Consider `CN(C(=O)C1CC1)C1CC2(CCN(C(=O)O[C@H](CO)C(F)(F)F)CC2)C1` [Example 55, (2R)-1,1,1-trifluoro-3-hydroxypropan-2-yl 2-[(cyclopropylcarbonyl)(methyl)amino]-7-azaspiro[3.5]nonane-7-carboxylate], for which the concentration for half-maximal inhibition (IC50) in experiment [1] (setting [3]) was 2 nM; in experiment [1] (setting [4]) it was 30 nM. For the same compound, the “MAGL kinact/KI” value in experiment [2] is reported as 15700 1/s per M.

For the compound `O=C(O[C@H](CO)C(F)(F)F)N1CCC2(CCC(n3cc(C(F)F)cn3)CO2)CC1` (single isomer, unassigned) [Example 75], the half-maximal inhibitory concentration (IC50) in experiment [1] (setting [3]) is 12 nM; in experiment [1] (setting [4]), 115 nM. In experiment [2], the “MAGL kinact/KI” value was 7370 1/s per M.

As to `O=C(O[C@H](CO)C(F)(F)F)N1CCC2(CC1)CC(c1ccc(F)cc1F)CO2` (single isomer, unassigned) [Example 33], the IC50 in experiment [1] (setting [3]) was 1 nM; in experiment [1] (setting [4]), 10 nM. For the same compound, the “MAGL kinact/KI” value in experiment [2] is listed as 53400 1/s per M.

In the case of `O=C(O[C@H](CO)C(F)(F)F)N1CCC2(CC1)CC(c1ccc(C(F)F)nc1)CO2` (single isomer, unassigned) [Example 36], the IC50 is 27 nM in experiment [1] (setting [3]) and 239 nM in experiment [1] (setting [4]). Moreover, the “MAGL kinact/KI” value in experiment [2] is listed as 1440 1/s per M.

For the compound `O=C(O[C@H](CO)C(F)(F)F)N1CCC2(CC1)CC(Oc1ccc(C(F)F)cn1)C2` [Example 85, (2R)-1,1,1-trifluoro-3-hydroxypropan-2-yl 2-{[5-(difluoromethyl)pyridin-2-yl]oxy}-7-azaspiro[3.5]nonane-7-carboxylate], the values for the 50% inhibitory concentration (IC50) in experiment [1] (setting [3]) and in experiment [1] (setting [4]) were 0.6 nM and 4 nM, respectively. Also, the “MAGL kinact/KI” value in experiment [2] was 42100 1/s per M.

Consider `CC(C)(C)c1ccn(C2COC3(CCN(C(=O)O[C@H](CO)C(F)(F)F)CC3)C2)n1` (single isomer, unassigned) [Example 52], for which the concentration for half-maximal inhibition (IC50) stood at 1 nM in experiment [1] (setting [3]) and 4 nM in experiment [1] (setting [4]). Moreover, the “MAGL kinact/KI” value in experiment [2] is 200000 1/s per M.

Turning to `Cc1cn(C2COC3(CCN(C(=O)O[C@H](CO)C(F)(F)F)CC3)C2)nc1C` (single isomer, unassigned) [Example 54], the half-maximal inhibitory concentration (IC50) stood at 4 nM in experiment [1] (setting [3]) and 21 nM in experiment [1] (setting [4]). The “MAGL kinact/KI” value in experiment [2] is listed as 26500 1/s per M.

For the compound `O=C(O[C@H](CO)C(F)(F)F)N1CCC2(CC1)CC(c1ccccn1)CO2` (single isomer, unassigned) [Example 41], the IC50 came to 7 nM in experiment [1] (setting [3]) and 76 nM in experiment [1] (setting [4]). Also, the “MAGL kinact/KI” value in experiment [2] is 13200 1/s per M.
